Data published in patent publication US7456225B1, “Liver protection compounds of the cyclohexenone type from Antrodia camphorata” (Golden Biotechnology Corporation, priority 2007, dated 2008).
Marks after values point to notes of the source that are not given here.

System: CCl4 treated, liver injury model animals
Assay: Antioxidant enzymes in liver (GSH, GSHPx, catalase, SOD)
Format: in vivo, Sprague-Dawley (SD) rats
Settings: CCl4-treated rats, 8 weeks
Protocol: The animal model was performed with five-week-old Sprague-Dawley (SD) rats purchased from BioLasco Taiwan Co., Ltd. Healthy rats weighing 220-270 g were chosen for experiment after observing for 2 weeks in the laboratory animal room. The rats were randomly divided into 6 groups (12 rats/group): normal (gp. A); control groups including model control (gp. B) and positive control (gp. C, animals receiving silymarin); treatment groups including animals receiving 300 mg/kg of cyclohexenone (gp. D), 1000 mg/kg of cyclohexenone (gp. E), and 3000 mg/kg of cyclohexenone (gp. F), as indicated in Table 1. Only normal group was not poisoned with CCl4. The body weights were recorded to calculate the dosage. […] It helps to remove toxins from liver cells by either neutralizing the toxicity of toxic compounds or competing with the binding sites in liver. It is a potent antioxidant, protects the liver from free radicals. It has been widely studied for treating various types of liver injury in animals and clinical trials. The beneficial effects on liver protection have made silymarin a good medicine for liver diseases and a drug in positive control group for the animal model of liver injury.
Rats in normal group (group A) were fed with corn oil (Sigma chemical co.) by means of stomach tubes. Carbon tetrachloride (Shimakyu, Osaka, Japan) was administered to groups B to F via stomach tubes twice weekly (every Tuesday and Thursday afternoon) for 8 weeks, at a dose of 2 ml/kg of body weight, diluted with corn oil. Silymarin was prepared with saline in an amount of 200 mg/kg of body weight and was fed to rats of group C via a stomach tube. Cyclohexenone prepared from example 1 was mixed with saline, and fed in the amounts of 300 mg/kg, 1000 mg/kg and 3000 mg/kg of body weight to rats of group D to F via stomach tubes. The total feeding volume was estimated in the ratio of 10 ml/kg of body weight to groups C to F five days a week (every morning) for 8 weeks. The body weights of rats and the amounts of food intake in rats for each group were shown in FIG. 1 and FIG. 2, respectively.
The liver stored at −80° C. as described above was immersed in PBS buffer (phosphate buffered saline solution, pH 7.4) containing 0.16 mg/ml heparin. Red blood cells were removed from the tissue. Liver was prepared as 1.0 g tissue/10 mL buffer homogenates in fresh, chilled 50 mM phosphate, 1 mM EDTA (pH 6-7) buffer using a Polytron homogenizer (setting 5, PT 10 probe, Brinkmann Instruments, Westbury, N.Y.) for one min. The solution was centrifuged at 10,000×g for 15 min at 4° C. Protein concentration was determined with a BCA protein assay kit (Pierce, Ill., USA) at 550 nm using an enzyme linked immunosorbent assay (ELISA) reader (MAX ELISA Reader, Quant, Bio-Tek Instrument, Vermont, USA). Commercial kits of glutathione (GSH), glutathione peroxidase (GSHPx), catalase (CAT), superoxide dismutase (SOD) (Glutathione Assay Kit, Cat No. 703002; Glutathione Peroxidase Assay Kit, Cat No. 703102; Catalase Assay Kit, Cat No. 707002; Superoxide Dismutase Assay Kit, Cat No. 706002) were purchased from Cayman Chemical Company (MI.USA) and assayed by reading at 405 nm, 340 nm, 540 nm and 450 nm using an ELISA reader. Deprotein step was carried out for all the assays mention above except SOD assay. Proteins were precipitated by mixing with equal volume of 10% metaphosphoric acid (w/v), vortex-mixed evenly, centrifuged at 2,000×g for 2 min. The supernatant was removed for enzyme assay. All values are expressed as mean ±SD, which were evaluated using One-way Analysis of Variance. Those with significant differences were further tested with the Least Significant Difference Test (LSD) or Student t-test to compare cyclohexenone treatment groups and normal groups, positive control and model groups. P<0.05 was selected as criterion for statistical significance in all cases.

**Q.** Which results are given for COC1=C(OC)C(O)C(C/C=C(\C)CC/C=C(\C)CCC=C(C)C)C(C)C1=O (stereo not drawn) [Cyclohexenone from Antrodia camphorata, 4-hydroxy-2,3-dimethoxy-6-methyl-5(3,7,11-trimethyl-dodeca-2,6,10-trienyl)-cyclohex-2-enone]?
**A.** Catalase (cyclohexenone 300 mg/kg): 9.1 ± 1.0 U/mg protein; GSH (Glutathione activity) (cyclohexenone 300 mg/kg): 30.3 ± 3.2 uM/mg protein; GSHPx (glutathione peroxidase activity) (cyclohexenone 300 mg/kg): 9.6 ± 1.7 nmol/min/mL; SOD (cyclohexenone 300 mg/kg): 0.47 U/mg protein; Catalase (cyclohexenone 1000 mg/kg): 10.1 ± 1.4 U/mg protein; GSH (Glutathione activity) (cyclohexenone 1000 mg/kg): 25.2 ± 1.8*^a uM/mg protein; GSHPx (glutathione peroxidase activity) (cyclohexenone 1000 mg/kg): 11.2 ± 3.4 nmol/min/mL; SOD (cyclohexenone 1000 mg/kg): 0.52 ± 0.28 U/mg protein; Catalase (cyclohexenone 3000 mg/kg): 9.8 ± 0.9 U/mg protein; GSH (Glutathione activity) (cyclohexenone 3000 mg/kg): 26.7 ± 4.3*^a uM/mg protein; GSHPx (glutathione peroxidase activity) (cyclohexenone 3000 mg/kg): 10.6 ± 3.1 nmol/min/mL; SOD (cyclohexenone 3000 mg/kg): 0.73 ± 0.23 U/mg protein
